Experimental data from US20090306093A1, “METHOD FOR TREATING PATIENT HAVING BENIGN PROSTATE HYPERPLASIA” (KAOHSIUNG MEDICAL UNIVERSITY, priority 2008, published 2009).

How the values were obtained:
ROCK2 [1] = assay: Western blot of phenylephrine-induced Rho kinase (ROCK2) expression in rat prostate; conditions: KMUP-1 10, 100 μM; Y-27632 10 μM; phenylephrine 10 μM
Procedure: In order to examine the expression of Rho kinase in prostate, the prostate strips were pre-incubated with phenylephrine (10 μM) for 30 minutes. After a pre-treatment of phenylephrine, KMUP-1 (10-100 μM) and Y-27632 (10 μM) were further incubated for 30 minutes. After the incubation time, the prostate were extracted with protein extraction reagent (Pierce Biotechnology, Inc., Rockford, Ill., USA.). The PZ-HPV-7 cells were incubated with and without KMUP-1 (0.1-10 μM) at 30 minutes, 8 and 24 hours. They were then washed rapidly with ice-cold PBS, incubated with protein extraction reagent, and scraped from the plates. The prostate tissues and cells were sonicated three times for 10 second each time and centrifuged at 13,000 rpm at 4° C. for 30 minutes. The protein concentrations of supernatants were determined, using bovine serum albumin as the standard. Tissue and cell extract protein were then boiled at a ratio of 4:1 with sample buffer (100 mM Tris, pH 6.8, 20% glycerol, 4% SDS, and 0.2% bromphenol blue). 40-60 μg protein was used in this experiment. Electrophoresis was performed using 10 or 12% SDS-polyacrylamide gel electrophoresis and then transferred to nitrocellulose membranes (Millipore Corporation, Billerica, Mass.). […] The intensity of the bands was measured by densitometry.

sGCa1 = assay: Western blot of sGCa1 expression in rat prostate
Procedure: Prostate strips were incubated with KMUP-1 (10-100 μM), sildenafil (100 μM) and zaprinast (100 μM) in 10 mL Tyrode solution aerated with 95% O2 and 5% CO2 for 1 hour. To examine the possible mechanisms of KMUP-1 action, the rat prostate were pretreated with ODQ (10 μM), SQ22536 (10 μM) and RP-8pCPT-cGMPs (10 μM) for 30 minutes prior to the addition of KMUP-1 (100 μM).
In order to examine the expression of Rho kinase in prostate, the prostate strips were pre-incubated with phenylephrine (10 μM) for 30 minutes. After a pre-treatment of phenylephrine, KMUP-1 (10-100 μM) and Y-27632 (10 μM) were further incubated for 30 minutes. After the incubation time, the prostate were extracted with protein extraction reagent (Pierce Biotechnology, Inc., Rockford, Ill., USA.). The PZ-HPV-7 cells were incubated with and without KMUP-1 (0.1-10 μM) at 30 minutes, 8 and 24 hours. They were then washed rapidly with ice-cold PBS, incubated with protein extraction reagent, and scraped from the plates. The prostate tissues and cells were sonicated three times for 10 second each time and centrifuged at 13,000 rpm at 4° C. for 30 minutes. The protein concentrations of supernatants were determined, using bovine serum albumin as the standard. Tissue and cell extract protein were then boiled at a ratio of 4:1 with sample buffer (100 mM Tris, pH 6.8, 20% glycerol, 4% SDS, and 0.2% bromphenol blue). 40-60 μg protein was used in this experiment. Electrophoresis was performed using 10 or 12% SDS-polyacrylamide gel electrophoresis and then transferred to nitrocellulose membranes (Millipore Corporation, Billerica, Mass.). The membrane was blocked with Tris-buffered saline (20 mM Tris and 137 mM NaCl, pH 7.6) containing 0.1% Tween 20 (TTBS) and 5% non-fat milk at room temperature for 1 hour, washed with TTBS, and then incubated overnight at 4° C. in the appropriate primary antibody of PKG (Santa Cruz, 1:200), sGCa1 (Santa Cruz, 1:200), PKA (Abcam, 1:1000), ROCK2 (Upstate, 1:1000), and PDE5A (BD Biosciences, 1:1000), p21 (Upstate, 1:1000). The membranes were washed in TTBS before being incubated with horseradish peroxidase-conjugated antibody against mouse, goat, or rabbit IgG (Santa Cruz, 1:1000) for 1 hour. The membrane was then washed in TTBS and developed with the enhanced chemiluminescence (ECL) for the detection of the specific antigen. The intensity of the bands was measured by densitometry.

[2] = test system: PZ-HPV-7 human prostatic epithelial cells; assay: Cell cycle distribution by flow cytometry; type: cell-based; conditions: 48 hours
Procedure: PZ-HPV-7 cells were incubated for 2 days with or without KMUP-1 (0.1-10 μM), after trypsinized for 10 minutes with 0.5% trypsin supplemented with 5.3 mM EDTA in HBBS. The cell suspension was then centrifuged at 200 g for 5 minutes at 4° C., resuspended in 1 mL ice-cold HBSS and fixed by the drop-wise addition of 2 mL of ice-cold methanol followed by continuously shaking. The processed cells were kept on ice for 30 minutes and then cells were collected by centrifugation at 90 g for 5 min and stained with propidium iodide (50 μg/mL, Sigma). RNase A (Promega, Madison, Wis.) was then added to a final concentration of 100 U/mL. Samples were stored in the dark for at least 30 minutes before an analysis on a Coulter Epics XL-MCL flow cytometer. […]

ROCK2 [3] = assay: Quantitative RT-PCR of Rho kinase (ROCK2) mRNA in PZ-HPV-7 cells; type: cell-based, human
Procedure: […] After the incubation, total RNA is isolated by processing the PZ-HPV-7 cells with TRI REAGEANT (Molecular Research Center, INC., Cincinnati, Ohio, USA) and 1-bromo-3chloropropane (BCP). Isopropanol was used to precipitate the isolated RNA; ethanol (75%) was used to wash the unwanted solution. The samples were then air-dried for 15 minutes at the room temperature. The pellet was re-suspended in 20 μL of DEPC-water (Ambion). After the RNA isolation, total RNA (2 μg) was used for the reverse transcription to cDNA by High-Capacity cDNA Reverse Transcription Kits (Applied Biosystems).
Quantitation of Rho kinase and an internal reference gene (GAPDH) were done by fluorescence-based real-time detection (ABI PRISM 7900HT Sequence Detection System (Taqman); Applied Biosystems, Foster City, Calif.). The PCR reaction mixture consisted of 1× TaqMan Master Mix, 1× Probe/primers Assay Mix, 100 ng cDNA, and water containing a reference dye, to a final volume of 20 μL (all reagents from Applied Biosystems). Cycling conditions were 50° C. for 2 minutes, 95° C. for 10 minutes, followed by 40 cycles at 95° C. for 15 second and 60° C. for 1 minute. Gene expression values (relative mRNA levels) are expressed as ratios (differences between the Ct values) between the genes of interest and an internal reference gene (GAPDH) providing a normalization factor for the amount of RNA isolated from cells. This analysis was performed by 7900 HT SDS 2.2.1 software.

## Cn1c(=O)c2c(ncn2CCN2CCN(c3ccccc3Cl)CC2)n(C)c1=O [KMUP-1, 7-[2-[4-(2-Chlorobenzene)piperazinyl]ethyl]-1,3-dimethyl xanthine]
ROCK2 [1]
  phenylephrine-induced Rho kinase expression: protected against phenylephrine-induced Rho kinase expression
sGCa1; KMUP-1 100 μM after pretreatment of ODQ 10 μM for 30 minutes
  expression of sGCa1: significantly reduce
sGCa1; KMUP-1 10-100 μM, sildenafil, zaprinast 100 μM, 1 hour
  expression of sGCa1: most potently induces
[2]; 0.1 μM
  increase of G0/G1 phase compared with vehicle control: 7±1.54%
[2]; 1 μM
  increase of G0/G1 phase compared with vehicle control: 10±2.07%
[2]; 10 μM
  increase of G0/G1 phase compared with vehicle control: 12.00±0.88%
ROCK2 [3]; 1 μM, 24 hours
  Rho kinase gene expression: 96.00±10.00 % of control
ROCK2 [3]; 1 μM, 48 hours
  Rho kinase gene expression: 90.00±10.05 % of control
ROCK2 [3]; 10 μM, 24 hours
  Rho kinase gene expression: 80.00±8.80 % of control
ROCK2 [3]; 10 μM, 48 hours
  Rho kinase gene expression: 66.00±5.80 % of control
ROCK2 [3]; 100 μM, 24 hours
  Rho kinase gene expression: 68.00±5.01 % of control
ROCK2 [3]; 100 μM, 48 hours
  Rho kinase gene expression: 52.00±7.01 % of control
